Earlier results as cited in patent US20240050950A1, “GRADIENT-BASED MICROFLUIDIC CIRCUIT, DEVICE, AND METHOD FOR PERFORMING AN ASSAY” (priority 2020, published 2024).
Structures can show the parent of a compound that is named as a salt. Where two headings read alike, the source gives them in different places.

Conditions: cited from earlier work
[1] = Table 1, antimicrobial agents/drugs
[2] = Table 3, antifungal drugs and other molecules

Row | SMILES | Molar volume (Table 2, anticancer drugs) | Molar volume [1] | other results
1 | CC(C)C[C@H](NC(=O)[C@@H](COC(C)(C)C)NC(=O)[C@H](Cc1ccc(O)cc1)NC(=O)[C@H](CO)NC(=O)[C@H](Cc1c[nH]c2ccccc12)NC(=O)[C@H](Cc1cnc[nH]1)NC(=O)[C@@H]1CCC(=O)N1)C(=O)N[C@@H](CCCNC(=N)N)C(=O)N1CCC[C@H]1C(=O)NNC(N)=O [Goserelin Acetate (Zoladex), Goserelin Acetate] | 844.7 ± 7.0 cm^3 | – | –
2 | CN1C2CCCC1CC(NC(=O)c1nn(C)c3ccccc13)C2 (stereo not drawn) [Granisetron] | 234.8 ± 7.0 cm^3 | – | –
3 | COC1=CC(=O)C[C@@H](C)[C@]12Oc1c(Cl)c(OC)cc(OC)c1C2=O [Griseofulvin] | – | 255.1 ± 5.0 cm^3 | –
4 | CC(C)NCC(O)COc1cccc2ccccc12 (stereo not drawn) [Hemangeol (Propranolol Hydrochloride), Propranolol Hydrochloride] | 237.1 ± 3.0 cm^3 | – | –
5 | CO[C@H]1[C@@H](OC)C[C@H](C)[C@@H](OC)C2=CC(=O)C=C(NC(=O)/C(C)=C/C=C\[C@H](OC)[C@@H](OC(N)=O)/C(C)=C/[C@@H]1C)C2=O [Herbimycin A] | – | 479.9 ± 5.0 cm^3 | –
6 | C=CCc1ccc(O)c(-c2ccc(O)c(CC=C)c2)c1 [Honokiol] | – | 240.4 ± 3.0 cm^3 | –
7 | CC[C@@]1(O)C(=O)OCc2c1cc1n(c2=O)Cc2cc3c(CN(C)C)c(O)ccc3nc2-1 [Hycamtin (Topotecan Hydrochloride), Topotecan Hydrochloride] | 281.3 ± 5.0 cm^3 | – | –
8 | NC(=O)NO [Hydrea (Hydroxyurea), Hydroxyurea] | 52.1 ± 3.0 cm^3 | – | –
9 | CN[C@H]1C[C@@H](N)[C@H](O)[C@@H](O[C@@H]2O[C@H](CO)[C@H](O)[C@@H]3OC4(O[C@H]23)O[C@H]([C@@H](N)CO)[C@H](O)[C@H](O)[C@H]4O)[C@@H]1O (stereo partly drawn) [Hygromycin B (WK2130000), Hygromycin B] | – | 315.1 ± 5.0 cm^3 | –
10 | CC(=O)[C@]1(O)Cc2c(O)c3c(c(O)c2[C@@H](O[C@H]2C[C@H](N)[C@H](O)[C@H](C)O2)C1)C(=O)c1ccccc1C3=O [Idarubicin Hydrochloride] | 317.8 ± 5.0 cm^3 | – | –
11 | CC[C@H](Nc1ncnc2[nH]cnc12)c1nc2cccc(F)c2c(=O)n1-c1ccccc1 [Idelalisib (Zydelig), Idelalisib] | 282.2 ± 7.0 cm^3 | – | –
12 | O=P1(NCCCl)OCCCN1CCCl (stereo not drawn) [Ifex (Ifosfamide), Ifosfamide] | 195.6 ± 5.0 cm^3 | – | –
13 | C[C@H](CCC(=O)O)C[C@H](C)C[C@H](C)C(=O)/C=C(\O)[C@H](C)C[C@H](C)C/C=C/[C@@H](C)[C@@H](O)[C@@H](C)[C@@H](O)C[C@@H]1CC[C@@](C)([C@H]2CC[C@@](C)([C@@H](C)O)O2)O1 [Ionomycin] | – | 661.0 ± 3.0 cm^3 | –
14 | Oc1cc(Cl)ccc1Oc1ccc(Cl)cc1Cl [Irgasan] | – | 194.3 ± 3.0 cm^3 | –
15 | N#Cc1ccnc(N2C(=O)CC[C@H]2C(=O)N(c2cncc(F)c2)[C@H](C(=O)NC2CC(F)(F)C2)c2ccccc2Cl)c1 [Ivosidenib (Tibsovo), Ivosidenib] | 383.5 ± 5.0 cm^3 | – | –
16 | C/C(=C\c1csc(C)n1)[C@@H]1C[C@@H]2O[C@]2(C)CCC[C@H](C)[C@H](O)[C@@H](C)C(=O)C(C)(C)[C@@H](O)CC(=O)N1 [Ixabepilone] | 451.5 ± 3.0 cm^3 | – | –
17 | CO[C@@H]1[C@@H](O[C@@H]2O[C@H](C)[C@@H](O[C@H]3C[C@@](C)(O)[C@@H](OC(=O)CC(C)C)[C@H](C)O3)[C@H](N(C)C)[C@H]2O)[C@@H](CC=O)C[C@@H](C)[C@@H](O)/C=C/C=C/C[C@@H](C)OC(=O)C[C@H]1OC(C)=O [Josamycin] | – | 684.5 ± 5.0 cm^3 | –
18 | COC(=O)[C@@]1(O)C[C@H]2O[C@]1(C)n1c3ccccc3c3c4c(c5c6ccccc6n2c5c31)C(=O)NC4 [K-252a] | – | 278.7 ± 7.0 cm^3 | –
19 | C[C@H]1O[C@H](O[C@H]2[C@H](O)[C@@H](O)[C@@H](O)[C@H](O)[C@@H]2O)[C@@H](N)C[C@@H]1NC(=N)C(=O)O [Kasugamycin] | – | – | Molar volume [2]: 192.2 ± 7.0 cm^3
20 | CC(=O)N1CCN(c2ccc(OCC3COC(Cn4ccnc4)(c4ccc(Cl)cc4Cl)O3)cc2)CC1 (stereo not drawn) [Ketoconazole] | – | 384.9 ± 7.0 cm^3 | Molar volume [2]: 389.4 cm^3
21 | CN(C)C(=O)c1cc2cnc(Nc3ccc(N4CCNCC4)cn3)nc2n1C1CCCC1 [Kisqali (Ribociclib), Ribociclib] | 635.1 ± 5.0 cm^3 | – | Molar volume (Table 2, anticancer drugs, listed as Ribociclib): 311.4 ± 7.0 cm^3
22 | C[C@H](N)C(=O)N[C@@H](C)P(=O)(O)O [L-Alanyl-L-1-aminoethylphosphonic acid] | – | 140.5 ± 3.0 cm^3 | –
23 | CC(C)[C@@H]1NC(=O)[C@H](CCCCN)NC(=O)[C@@H](Cc2c[nH]c3ccccc23)NC(=O)[C@H](Cc2ccc(O)cc2)NC(=O)[C@@H](NC(=O)[C@H](N)Cc2ccc3ccccc3c2)CSSC[C@@H](C(=O)N[C@H](C(N)=O)[C@@H](C)O)NC1=O [Lanreotide Acetate] | 781.0 ± 5.0 cm^3 | – | –
24 | O=C(Nc1cnn2ccc(N3CCC[C@@H]3c3cc(F)ccc3F)nc12)N1CC[C@H](O)C1 [Larotrectinib Sulfate (Vitrakvi), Larotrectinib Sulfate] | 274.6 ± 7.0 cm^3 | – | –
25 | Nc1cccc2c1CN(C1CCC(=O)NC1=O)C2=O (stereo not drawn) [Lenalidomide] | 177.4 ± 3.0 cm^3 | – | –
26 | CC(/C=C/C[C@@H](C)/C=C(C)/C=C/[C@@H]1OC(=O)C=C[C@@H]1C)=C\[C@@H](C)C(=O)[C@@H](C)[C@H](O)[C@@H](C)C/C(C)=C/C(=O)O [Leptomycin A] | – | 487.8 ± 3.0 cm^3 | –

Row | SMILES | Molar volume (Table 2, anticancer drugs) | Molar volume [1] | other results
27 | CCC(=C/[C@H](C)C/C=C/C(C)=C/[C@@H](C)C(=O)[C@@H](C)[C@H](O)[C@@H](C)C/C(C)=C/C(=O)O)/C=C/[C@@H]1OC(=O)C=C[C@@H]1C [Leptomycin B] | – | 504.3 ± 3.0 cm^3 | –
28 | CCNC(=O)[C@@H]1CCCN1C(=O)[C@H](CCCNC(=N)N)NC(=O)[C@H](CC(C)C)NC(=O)[C@@H](CC(C)C)NC(=O)[C@H](Cc1ccc(O)cc1)NC(=O)[C@H](CO)NC(=O)[C@H](Cc1c[nH]c2ccccc12)NC(=O)[C@H](Cc1c[nH]cn1)NC(=O)[C@@H]1CCC(=O)N1 [Leuprolide Acetate), Leuprolide Acetate] | 834.5 ± 7.0 cm^3 | – | –
29 | c1ccc([C@H]2CN3CCSC3=N2)cc1 [Levamisol (Levamisole), Levamisole] | – | 154.1 ± 7.0 cm^3 | –
30 | O=NN(CCCl)C(=O)NC1CCCCC1 [Lomustine] | 173.0 ± 7.0 cm^3 | – | –
31 | O=C(c1cc(Cc2n[nH]c(=O)c3ccccc23)ccc1F)N1CCN(C(=O)C2CC2)CC1 [Lynparza (Olaparib), Olaparib] | 301.7 ± 7.0 cm^3 | – | –
32 | CNNCc1ccc(C(=O)NC(C)C)cc1 [Matulane (Procarbazine Hydrochloride), Procarbazine Hydrochloride] | 213.6 ± 3.0 cm^3 | – | –
33 | COC(=O)Nc1nc2ccc(C(=O)c3ccccc3)cc2[nH]1 [Mebendazole] | – | 212.6 ± 3.0 cm^3 | –
34 | CC(=O)O[C@]1(C(C)=O)CC[C@H]2[C@@H]3C=C(C)C4=CC(=O)CC[C@]4(C)[C@H]3CC[C@@]21C [Megestrol Acetate] | 333.3 ± 5.0 cm^3 | – | –
35 | N[C@@H](Cc1ccc(N(CCCl)CCCl)cc1)C(=O)O [Melphalan] | 231.2 ± 3.0 cm^3 | – | –
36 | S=c1nc[nH]c2nc[nH]c12 [Mercaptopurine] | 94.1 ± 3.0 cm^3 | – | –
37 | CN(Cc1cnc2nc(N)nc(N)c2n1)c1ccc(C(=O)N[C@@H](CCC(=O)O)C(=O)O)cc1 [Methotrexate] | 295.6 ± 3.0 cm^3 | – | –
38 | Cc1ncc([N+](=O)[O-])n1CCO [Metronidazole] | – | 117.8 ± 7.0 cm^3 | –
39 | CC[C@H](C)C(=O)O[C@H]1CCC=C2C=C[C@H](C)[C@H](CC[C@@H]3C[C@@H](O)CC(=O)O3)[C@H]21 [Mevastatin] | – | 343.8 ± 5.0 cm^3 | –
40 | CO[C@@]12[C@H](COC(N)=O)C3=C(C(=O)C(C)=C(N)C3=O)N1C[C@@H]1N[C@@H]12 [Mitomycin C (Mitomycin), Mitomycin C] | 213.6 ± 5.0 cm^3 | 213.6 ± 5.0 cm^3 | –
41 | CC[C@@]1([C@@H]2O[C@@H]([C@H]3O[C@@](O)(CO)[C@H](C)C[C@@H]3C)C[C@@H]2C)CC[C@H]([C@]2(C)CC[C@]3(C[C@H](O)[C@@H](C)[C@@H]([C@@H](C)[C@@H](OC)[C@H](C)C(=O)O)O3)O2)O1 [Monensin] | – | 552.7 ± 5.0 cm^3 | –
42 | CO[C@@]1(NC(=O)C(C(=O)O)c2ccc(O)cc2)C(=O)N2C(C(=O)O)=C(CSc3nnnn3C)CO[C@@H]21 (stereo partly drawn) [Moxalactam (Latamoxef), Moxalactam] | – | 292.5 ± 7.0 cm^3 | –
43 | c1cc(CN2CCCNCCNCCCNCC2)ccc1CN1CCCNCCNCCCNCC1 [Mozobil (Plerixafor), Plerixafor] | 522.2 ± 3.0 cm^3 | – | –
44 | C/C(=C\C(=O)OCCCCCCCCC(=O)O)C[C@@H]1OC[C@H](C[C@@H]2O[C@H]2[C@@H](C)[C@H](C)O)[C@@H](O)[C@H]1O [Mupirocin] | – | 423.0 ± 3.0 cm^3 | –
45 | CO/C(=C/C(N)=O)[C@H](C)[C@H](/C=C/c1csc(-c2csc([C@@H](C)/C=C/C=C/C(C)C)n2)n1)OC [Myxothiazol] | – | 421.0 ± 3.0 cm^3 | –
46 | CN1C[C@H](O)[C@@H](O)[C@H](O)[C@H]1CO [N-Methyl-1-deoxynojirimycin (1524564), N-Methyl-1-deoxynojirimycin] | – | 127.0 ± 3.0 cm^3 | –
47 | CCOc1ccc2ccccc2c1C(=O)N[C@@H]1C(=O)N2[C@@H]1SC(C)(C)[C@@H]2C(=O)O [Nafcillin] | – | 289.8 ± 5.0 cm^3 | –
48 | CN(C/C=C/c1ccccc1)Cc1cccc2ccccc12 [Naftifine] | – | 265.4 ± 3.0 cm^3 | –
49 | CC[C@@H](C(=O)O)[C@@H]1O[C@@H]([C@@H](C)[C@H](O)[C@H](C)C(=O)[C@H](CC)[C@H]2O[C@]3(C=C[C@@H](O)[C@]4(CC[C@@](C)([C@H]5CC[C@](O)(CC)[C@H](C)O5)O4)O3)[C@H](C)C[C@@H]2C)[C@@H](C)C[C@@H]1C [Narasin] | – | 650.1 ± 5.0 cm^3 | –
50 | CCC1=C[C@@H]2CN(C1)Cc1c([nH]c3ccccc13)[C@@](C(=O)OC)(c1cc3c(cc1OC)N(C)[C@H]1[C@@](O)(C(=O)OC)[C@H](OC(C)=O)[C@]4(CC)C=CCN5CC[C@]31[C@@H]54)C2 [Navelbine (Vinorelbine Tartrate), Vinorelbine Tartrate] | 569.7 ± 5.0 cm^3 | – | –
51 | Cn1cc(NC(=O)c2cc(NC(=O)CN=C(N)N)cn2C)cc1C(=O)NCCC(=N)N [Netropsin (Congocidin, Sinanomycin), Netropsin] | – | 282.7 ± 7.0 cm^3 | –
